One assay addresses Kgp (Porphyromonas gingivalis, UniProt P72197). Briefly: Lysine gingipain (Kgp) fluorogenic inhibition assay. It is filed as biochemical. The procedure:
The capacities of compounds of the present invention to inhibit the activity of lysine gingipain were measured in a fluorogenic assay similar to those described in Barret Biochemical Journal. 1980, 187(3), 909. The specific assay conditions were as follows. Buffer: pH=7.5, 100 mM Tris-HCl, 75 mM NaCl, 2.5 mM CaCl2, 10 mM cysteine, 1% DMSO after all additions. Protein: 0.1 nM Kgp, isolated from culture of Porphyromonas gingivalis, as described in Pike et al. J. Biol. Chem. 1994, 269(1), 406, and Potempa and Nguyen. Current Protocols in Protein Science. 2007, 21.20.1-21.20.27. Fluorogenic substrate: 10 uM Z-His-Glu-Lys-MCA. Time=90 minutes. Temperature=37° C. Each compound: 10 concentrations, starting at either 100 uM or 100 nM, with lower concentrations generated by serial 3-fold dilutions. By testing a range of concentrations for each compound, the concentration required to inhibit the activity of lysine gingipain by 50% (the “IC50”) was determined. Under the described assay conditions, signal-to-noise was excellent, and Z factor was greater than 0.6.

Assay [1] relates to differentiated SH-SY5Y neuroblastoma cells. Briefly: Gingipain-induced death of differentiated SH-SY5Y cells. It is filed as cell-based. Conditions: 100 nM Kgp and/or RgpB for 24 hours. The procedure: SH-SY5Y neuroblastoma cells were cultured and differentiated in the presence of 5 uM retinoic acid based on established methods [Saberi S., et al. Cell Mol Neurobiol 2013. 33: 747-751]. Differentiation into neuronal cells was verified by observation of neurite outgrowth. The differentiated cells were exposed to 100 nM Kgp and/or RgpB for 24 hours, in the presence or absence of Kgp inhibitors. Results were recorded using a digital microscope camera (FIG. 1C, FIG. 2C). Gingipains are toxic to cells while COR compounds prevent the cytotoxicity.

Where [2] appears, read: Kgp IC50 average, 0.1 nM Kgp, 10 uM Z-His-Glu-Lys-MCA, 90 minutes, 37° C.
Where [3] appears, read: read-out: Kgp IC50 average, 0.1 nM Kgp, 10 uM Z-His-Glu-Lys-MCA, 90 minutes, 37° C.

Each structure is given as a SMILES string. Several values for one entry are separate records, joined by “and”; a condition that tells them apart may be missing. Equal entries are not always repeated. Entries after “also recorded” stand apart in the source; their conditions may differ. Where two headings read alike, the source gives them in different places.

With `NCCCCC(NC(=O)[C@@H]1CCCN(C(=O)CCc2ccccc2)C1)C(=O)c1nc2ccccc2s1` (single isomer, unassigned) [Compound 14], on Kgp (setting [2]), the half-inhibitory concentration (IC50) fell in the range of 1 to 10 nM.
`NCCCCC(NC(=O)[C@@H]1CCCN(C(=O)CCc2ccccc2)C1)C(=O)c1nc2ccccc2s1` (single isomer, unassigned) [Compound 15]: on Kgp (setting [3]), the 50% inhibitory concentration (IC50) was in the range of 1 to 10 nM.
`NCCCC[C@H](NC(=O)C1CCCOC1)C(=O)c1nc2ccccc2s1` (single isomer, unassigned) [Compound 18] yielded an IC50 against Kgp (setting [2]) of 10 to 25 nM.
For the molecule `NCCCC[C@H](NC(=O)C1CCCOC1)C(=O)c1nc2ccccc2s1` (single isomer, unassigned) [Compound 19], the half-inhibitory concentration (IC50) at Kgp (setting [3]) lay within 10 to 25 nM.
`NCCCC[C@H](NC(=O)C1CCCCO1)C(=O)c1nc2ccccc2s1` (single isomer, unassigned) [Compound 25] displayed an IC50 on Kgp (setting [2]) of 25 to 50 nM.
Turning to `NCCCC[C@H](NC(=O)C1CCCCO1)C(=O)c1nc2ccccc2s1` (single isomer, unassigned) [Compound 26], the IC50 at Kgp (setting [3]) was in the range of 25 to 50 nM.
On to `NCCCC[C@H](NC(=O)C1CCCO1)C(=O)c1nc2ccccc2s1` (single isomer, unassigned) [Compound 34], for which the IC50 against Kgp (setting [2]) is 1 to 10 nM.
Regarding `NCCCC[C@H](NC(=O)C1CCCO1)C(=O)c1nc2ccccc2s1` (single isomer, unassigned) [Compound 35], the IC50 at Kgp (setting [3]) was in the range of 1 to 10 nM.
With `NCCCC[C@H](NC(=O)c1ccccc1)C(=O)c1nc2ccccc2s1` [Compound 1, N-[(1S)-5-amino-1-(1,3-benzothiazole-2-carbonyl)pentyl]benzamide], at Kgp (setting [2]), the IC50 is 50 to 100 nM and 25 to 50 nM. Moreover, the “prevention of gingipain-induced death of differentiated SHSY-5Y cells” value (shortened to “prevention … of differentiated SHSY-5Y cells”) in assay [1] is “effective at preventing cell death; also recorded: prevents gingipain-induced death”.
In the case of `NCCCC[C@H](NC(=O)C1CCCCC1)C(=O)c1nc2ccccc2s1` [Compound 2, N-[(1S)-5-amino-1-(1,3-benzothiazole-2-carbonyl)pentyl]cyclohexanecarboxamide], the half-inhibitory concentration (IC50) against Kgp (Kgp IC50, figure legend) is 1 to 10 nM; against Kgp (setting [2]) it was 1 to 10 nM and 10 to 25 nM. Moreover, the “prevention … of differentiated SHSY-5Y cells” value in assay [1] was “effective at preventing cell death; also recorded: more effective”.
As for `NCCCC[C@H](NC(=O)[C@H]1CCCN(C(=O)CCc2ccccc2)C1)C(=O)c1nc2ccccc2s1` [Compound 3, (3S)—N-[(1S)-5-amino-1-(1,3-benzothiazole-2-carbonyl)pentyl]-1-(3-phenylpropanoyl)piperidine-3-carboxamide], the IC50 against Kgp (Kgp IC50, figure legend) lay within 10 to 25 nM; at Kgp (setting [2]), 10 to 25 nM. In addition, the “prevention … of differentiated SHSY-5Y cells” value in assay [1] is listed as “does not”.
For the molecule `NCCCC[C@H](NC(=O)[C@@H]1CCCN(C(=O)CCc2ccccc2)C1)C(=O)c1nc2ccccc2s1` [Compound 4, (3R)—N-[(1S)-5-amino-1-(1,3-benzothiazole-2-carbonyl)pentyl]-1-(3-phenylpropanoyl)piperidine-3-carboxamide], the IC50 at Kgp (Kgp IC50, figure legend) is 1 to 10 nM; on Kgp (setting [2]), 1 to 10 nM. In addition, the “prevention … of differentiated SHSY-5Y cells” value in assay [1] was “prevents gingipain-induced death”; in assay [1] (listed as 2-(N—[N-(3-phenylpropanoyl)-(R)-nipecotinyl]-(R)-lysinyl)-benzothiazole), “effective at preventing cell death”.
`NCCCC[C@H](NC(=O)c1ccccc1C(F)(F)F)C(=O)c1nc2ccccc2s1` [Compound 7, N-[(1S)-5-amino-1-(1,3-benzothiazole-2-carbonyl)pentyl]-2-(trifluoromethyl)benzamide]: the IC50 at Kgp (setting [2]) was 25 to 50 nM.
The same measure, in the same setting: then `CC(=O)N1CCC[C@H](C(=O)N[C@@H](CCCCN)C(=O)c2nc3ccccc3s2)C1` [Compound 8, (3S)-1-acetyl-N-[(1S)-5-amino-1-(1,3-benzothiazole-2-carbonyl)pentyl]piperidine-3-carboxamide], with 10 to 25 nM.
On the same count and under the same terms, under `CC(=O)N1CCC[C@@H](C(=O)N[C@@H](CCCCN)C(=O)c2nc3ccccc3s2)C1` [Compound 9, (3R)-1-acetyl-N-[(1S)-5-amino-1-(1,3-benzothiazole-2-carbonyl)pentyl]piperidine-3-carboxamide] stands 1 to 10 nM; under `CC(=O)N1CCC[C@H](C(=O)N[C@H](CCCCN)C(=O)c2nc3ccccc3s2)C1` [Compound 10, (3S)-1-acetyl-N-[(1R)-5-amino-1-(1,3-benzothiazole-2-carbonyl)pentyl]piperidine-3-carboxamide], 10 to 25 nM; under `CC(=O)N1CCC[C@@H](C(=O)N[C@H](CCCCN)C(=O)c2nc3ccccc3s2)C1` [Compound 11, (3R)-1-acetyl-N-[(1R)-5-amino-1-(1,3-benzothiazole-2-carbonyl)pentyl]piperidine-3-carboxamide], 1 to 10 nM.
The same measure, in the same setting: then `NCCCC[C@H](NC(=O)c1ccccn1)C(=O)c1nc2ccccc2s1` [Compound 12, N-[(1S)-5-amino-1-(1,3-benzothiazole-2-carbonyl)pentyl]pyridine-2-carboxamide], with 50 to 100 nM; and `NCCCC[C@H](NC(=O)c1ccncc1)C(=O)c1nc2ccccc2s1` [Compound 13, N-[(1S)-5-amino-1-(1,3-benzothiazole-2-carbonyl)pentyl]pyridine-4-carboxamide], with 25 to 50 nM.
On Kgp (setting [2]), `NCCCC[C@H](NC(=O)C1CCOCC1)C(=O)c1nc2ccccc2s1` [Compound 22, N-[(1S)-5-amino-1-(1,3-benzothiazole-2-carbonyl)pentyl]tetrahydropyran-4-carboxamide] returned an IC50 of 10 to 25 nM.
In the case of `NCCCC[C@H](NC(=O)OCc1ccccc1)C(=O)c1nc2ccccc2s1` [Compound 23, Benzyl-N-[(1S)-5-amino-1-(1,3-benzothiazole-2-carbonyl)pentyl]carbamate], the IC50 on Kgp (setting [2]) was in the range of 100 to 250 nM.
Still for that read-out and setting: under `NCCCC[C@H](NC(=O)C1CCCC1)C(=O)c1nc2ccccc2s1` [Compound 24, N-[(1S)-5-amino-1-(1,3-benzothiazole-2-carbonyl)pentyl]cyclo-pentanecarboxamide] stands 1 to 10 nM; under `CC(=O)N1CCOC(C(=O)N[C@@H](CCCCN)C(=O)c2nc3ccccc3s2)C1` (stereo partly drawn) [Compound 29, 4-acetyl-N-[(1S)-5-amino-1-(1,3-benzothiazole-2-carbonyl)pentyl]morpholine-2-carboxamide], 10 to 25 nM; under `NCCCC[C@H](NC(=O)c1cccnc1)C(=O)c1nc2ccccc2s1` [Compound 30, N-[(1S)-5-amino-1-(1,3-benzothiazole-2-carbonyl)pentyl]pyridine-3-carboxamide], 25 to 50 nM.
Still for that read-out and setting: under `NCCCC[C@H](NC(=O)C1CCCc2ccccc21)C(=O)c1nc2ccccc2s1` (stereo partly drawn) [Compound 31, N-[(1S)-5-amino-1-(1,3-benzothiazole-2-carbonyl)pentyl]tetralin-1-carboxamide] stands 10 to 25 nM; under `NCCCC[C@H](NC(=O)C1CCc2ccccc2C1)C(=O)c1nc2ccccc2s1` (stereo partly drawn) [Compound 32, N-[(1S)-5-amino-1-(1,3-benzothiazole-2-carbonyl)pentyl]tetralin-2-carboxamide], 1 to 10 nM; under `CC1(C(=O)N[C@@H](CCCCN)C(=O)c2nc3ccccc3s2)CCCCC1` [Compound 33, N-[(1S)-5-amino-1-(1,3-benzothiazole-2-carbonyl)pentyl]-1-methyl-cyclohexanecarboxamide], 1 to 10 nM.
As to `NCCCC[C@H](NC(=O)c1cncs1)C(=O)c1nc2ccccc2s1` [Compound 38, N-[(1S)-5-amino-1-(1,3-benzothiazole-2-carbonyl)pentyl]thiazole-5-carboxamide], the IC50 against Kgp (setting [2]) lay in the range of 10 to 25 nM.
Still for that read-out and setting: under `NCCCC[C@H](NC(=O)c1nccs1)C(=O)c1nc2ccccc2s1` [Compound 39, N-[(1S)-5-amino-1-(1,3-benzothiazole-2-carbonyl)pentyl]thiazole-2-carboxamide] stands 50 to 100 nM; under `NCCCC[C@H](NC(=O)c1cccc(=O)[nH]1)C(=O)c1nc2ccccc2s1` [Compound 40, N-[(1S)-5-amino-1-(1,3-benzothiazole-2-carbonyl)pentyl]-6-oxo-1H-pyridine-2-carboxamide], 25 to 50 nM; under `COC1(C(=O)N[C@@H](CCCCN)C(=O)c2nc3ccccc3s2)CCCCC1` [Compound 41, (S)—N-(6-amino-1-(benzo[d]thiazol-2-yl)-1-oxohexan-2-yl)-1-methoxycyclohexanecarboxamide], 10 to 25 nM.
On the same count and under the same terms, under `NCCCC[C@H](NC(=O)C1CCCC1)C(=O)c1nccs1` [Compound 42, N-[(1S)-5-amino-1-(thiazole-2-carbonyl)pentyl]cyclopentanecarboxamide] stands 50 to 100 nM; under `NCCCC[C@H](NC(=O)C1CCCC1)C(=O)c1ccccn1` [Compound 44, N-[(1S)-5-amino-1-(pyridine-2-carbonyl)pentyl]cyclopentanecarboxamide], above 250 nM.

The values above are taken from patent US11332464B2, “Inhibitors of lysine gingipain” (priority 2014, dated 2022).
